The test system of assay [1] is Aiolos. As to the kind of experiment: Aiolos protein inhibition in myeloma cells. Format: cell-based.
Assay [2] deals with Aiolos. As to the kind of experiment: Aiolos Western blotting of primary human T cells. Format: cell-based. Conditions: 6 hours and 24 hours. As to the method:
Primary T cells from up to 3 donors were isolated from human leukocytes (Blood Center of New Jersey, East Orange, N.J.) by centrifugation through FICOLL® following the ROSETETTESEP™ protocol (Stem Cell Technologies, Vancouver, Canada). Purified T cells were stimulated with anti-CD3 Antibody (Ebioscience, San Diego, Calif.), drug treated for six hours, harvested and Aiolos and Ikaros protein expression was determined by immunoblot analysis using antibodies against Aiolos (Santa Cruz, Dallas, Tex.) and Ikaros (Millipore, Billerica, Mass.) with our without blocking peptide.
(Immunoblotting shows a protein as a band on a membrane.)

Assay [3] deals with Aiolos. Briefly: Aiolos protein level in B cells from CLL patients and healthy subjects. Format: cell-based, human. The conditions noted are these: B cells obtained from CLL patients as well as healthy subjects.
Assay [4] relates to Aiolos. Briefly: Aiolos expression by western blot at 6 hours (FIG. 37). The conditions noted are these: 6 hours after the treatment, with varying degrees. Format: cell-based.
Assay [5] concerns Ikaros. As to the kind of experiment: Ikaros expression by western blot at 6 hours (FIG. 37). Format: cell-based. Conditions: 6 hours after the treatment, with varying degrees.
Assay [6] deals with Aiolos. Briefly: B-CLL / CD40L fibroblast co-culture, Aiolos (Western blot, flow cytometry). Format: cell-based, human. The conditions noted are these: for Aiolos protein level: B-CLL co-culture, 72 hours, 10 μM lenalidomide, 1 μM pomalidomide, 0.1 μM Compound A, 0.1 μM Compound B, 3 patient samples; for Dose dependence of Aiolos inhibition by flow cytometry: three different B-CLL patient co-culture samples. As to the method: (§1) CD40L expressing fibroblasts (gift from Angela Piperno, Rockefeller University, NY, N.Y.) were maintained in DMEM medium supplied with 20% FBS. Prior to co-cultures CD40L fibroblasts were pre-treated for 3 hours with 10 μg/mL Mytomicin C followed by a wash with PBS and Accutase dissociation. Cells were then re-plated at a density of 6×10^5 cells per well (24 well per plate format) and grown overnight to allow formation of monolayer. […] For long term cultures, half of the culture media was renewed every three days. Alternatively, for other assays, B-CLL cells were co-cultured on CD40L without being pre-stained.
(§2) Effects of compound treatment on CRBN, Aiolos, p21^WAF-1 and IRF4 were evaluated in 3 different patient cell samples (FIG. 56A).

The subject of a further assay is IRF4. Briefly: B-CLL / CD40L fibroblast co-culture Western blot, IRF4. Conditions: 72 hours, 10 μM lenalidomide, 1 μM pomalidomide, 0.1 μM Compound A, 0.1 μM Compound B, 3 patient samples. Format: cell-based, human. As to the method:
(§3) Human primary B-CLL cells viably frozen from patient samples were obtained from AllCells (Emeryville, Calif., USA) and maintained in Roswell Park Memorial Institute (RPMI)-1640 medium with 10% fetal bovine serum (FBS) (Invitrogen, Carlsbad, Calif.). CD40L expressing fibroblasts (gift from Angela Piperno, Rockefeller University, NY, N.Y.) were maintained in DMEM medium supplied with 20% FBS. Prior to co-cultures CD40L fibroblasts were pre-treated for 3 hours with 10 μg/mL Mytomicin C followed by a wash with PBS and Accutase dissociation. Cells were then re-plated at a density of 6×10^5 cells per well (24 well per plate format) and grown overnight to allow formation of monolayer. Defrosted viable primary B-CLL patient cells were pre-stained with CFSE reagent (Vibrant CFDA SE Cell Tracer Kit, Invitrogen, Carlsbad, Calif., USA) according to a manufacturer's supplied protocol and plated at 0.8-1×10^6 cells per well on the pre-formed monolayer of CD40L fibroblasts in RPMI 1640 medium supplemented with 10% FBS, 5 ng/mL rh-IL4 and 10 ng/mL rh-IL10 (Peprotech, USA). For long term cultures, half of the culture media was renewed every three days. Alternatively, for other assays, B-CLL cells were co-cultured on CD40L without being pre-stained.
(§4) Effects of compound treatment on CRBN, Aiolos, p21^WAF-1 and IRF4 were evaluated in 3 different patient cell samples (FIG. 56A). The three patient samples show similar expression levels of CRBN protein (compare lane 1 of the 3 Western blots in FIG. 56A; samples were run in same membrane even though gels are presented as 3 independent pictures in the figure). […] The effects on p21, IRF4 and Aiolos are consistent with the cell cycle arrest and inhibition of proliferation observed with compound treatment.

In a further assay the test system is p21^WAF-1. Briefly: B-CLL / CD40L fibroblast co-culture Western blot, p21^WAF-1. Format: cell-based, human. The conditions noted are these: 72 hours, 10 μM lenalidomide, 1 μM pomalidomide, 0.1 μM Compound A, 0.1 μM Compound B, 3 patient samples. As to the method: as §3, §4
In a further assay the target is CRBN (Homo sapiens, UniProt Q96SW2). As to the kind of experiment: B-CLL / CD40L fibroblast co-culture Western blot, CRBN. Format: cell-based. Further details: endogenous in cells; host or cells: primary B-CLL patient cells co-cultured with CD40L-expressing fibroblasts. Conditions: 72 hours, 10 μM lenalidomide, 1 μM pomalidomide, 0.1 μM Compound A, 0.1 μM Compound B, 3 patient samples. As to the method: as §1, §2
Chain of CRBN (Q96SW2 whole entry): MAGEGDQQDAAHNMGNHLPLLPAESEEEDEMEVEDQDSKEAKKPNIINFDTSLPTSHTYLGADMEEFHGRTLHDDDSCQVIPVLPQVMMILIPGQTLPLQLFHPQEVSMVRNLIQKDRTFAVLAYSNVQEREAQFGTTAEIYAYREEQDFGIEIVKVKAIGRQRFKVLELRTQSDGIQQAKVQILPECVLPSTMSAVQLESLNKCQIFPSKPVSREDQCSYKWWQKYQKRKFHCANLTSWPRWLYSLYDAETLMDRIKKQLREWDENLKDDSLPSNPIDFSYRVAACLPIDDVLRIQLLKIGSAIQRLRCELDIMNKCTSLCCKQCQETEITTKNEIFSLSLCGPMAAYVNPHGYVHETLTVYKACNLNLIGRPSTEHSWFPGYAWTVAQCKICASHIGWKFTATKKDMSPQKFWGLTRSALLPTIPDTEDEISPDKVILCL

The target of assay [7] is Ikaros (Homo sapiens, UniProt Q13422). As to the kind of experiment: Ikaros western blots in MM cells, T cells and B cells. Format: cell-based. Further details: endogenous in cells; host or cells: U266, DF15 (and other MM lines), primary CD3+ T cells, primary CD19+ B cells. The conditions noted are these: for Reduction of Ikaros levels compared with other treatment compounds for MM: MM cells. As to the method:
U266 cells were obtained from ATCC (American Type Culture Collection, Manassas, Va., USA). DF15 cells were obtained from John Shaughnessy (University of Arkansas, Little Rock, Ark., USA). CD19+ B cells were purchased from HemaCare BioResearch Products (Van Nuys, Calif.). Cells were grown in RPMI-1640 medium (Cellgro, Manassas, Va.) containing 10% (V/V) heat-inactivated fetal bovine serum (Gibco, Grand Island, N.Y., USA) supplemented with 2 mM glutamine. […] Primary T cells were isolated from human leukocytes (Blood Center of New Jersey, East Orange, N.J.) by centrifugation through FICOLL® centrifugation medium following the ROSETETTESEP™ protocol (Stem Cell Technologies, Vancouver, Canada). […] Dexamethasone (Sigma, St. Louis, Mo.), melphalan (Sigma, St. Louis, Mo.) and bortezomib (Selleck Chemicals, Houston, Tex.) treated was for 6 hours. The final DMSO concentration is 0.1%. Cells were pre-treated with 10 μM MG-132 (Calbiochem Biochemicals, Billerica, Mass.) for 30 minutes prior to drug addition. Cells were harvested, washed in PBS and cell lysates separated on SDS-PAGE gels (Bio-Rad, Hercules, Calif.). Membranes were immunoblotted with anti-Aiolos (Santa Cruz Biotechnology, Dallas, Tex.), anti-Ikaros (Millipore, Billerica, Mass.) and anti-Actin (Sigma, St. Louis, Mo.; or LI-COR Biosciences, Lincoln, Nebr.) and secondary antibodies (LI-COR Biosciences, Lincoln, Nebr.). The blots were analyzed on ODESSEY® imager (LI-COR Biosciences, Lincoln, Nebr.).
Cell lysates were separated on a 10% TGX SDS-PAGE gel (Bio-Rad) and blotted for Aiolos (Santa Cruz, sc-10198), Ikaros (Millipore, ABD16) and Actin (Sigma, AC15).

Where [8] appears, read: 10 μM lenalidomide, 1 μM pomalidomide, U266, DF15 MM cells, primary CD3+ T cells, primary CD19+ B cells, cycloheximide treated U266.
Where [9] appears, read: six MM cell lines (OPM-2, RPMI-8226, LP-1, U266, H929 and JJN3), various concentrations.

These results are taken from US9857359B2, “Methods for determining drug efficacy using cereblon-associated proteins” (CELGENE CORPORATION, priority 2012, dated 2018).

Chain of Ikaros (Homo sapiens, UniProt Q13422) (Q13422 whole entry): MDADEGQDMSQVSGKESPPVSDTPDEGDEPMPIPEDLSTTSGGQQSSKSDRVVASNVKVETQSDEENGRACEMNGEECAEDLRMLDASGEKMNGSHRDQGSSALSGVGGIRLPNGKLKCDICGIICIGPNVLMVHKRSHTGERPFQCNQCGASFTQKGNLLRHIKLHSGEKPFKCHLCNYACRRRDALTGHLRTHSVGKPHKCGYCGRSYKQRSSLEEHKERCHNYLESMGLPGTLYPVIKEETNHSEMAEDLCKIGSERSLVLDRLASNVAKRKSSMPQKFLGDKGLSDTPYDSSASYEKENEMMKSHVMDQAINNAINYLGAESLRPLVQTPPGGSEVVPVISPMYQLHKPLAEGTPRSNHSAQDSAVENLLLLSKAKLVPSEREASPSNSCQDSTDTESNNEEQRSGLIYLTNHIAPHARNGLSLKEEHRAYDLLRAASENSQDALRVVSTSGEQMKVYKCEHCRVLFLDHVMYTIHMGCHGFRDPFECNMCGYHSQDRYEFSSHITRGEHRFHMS

For `O=C1CC[C@H](N2Cc3c(OCc4ccc(CN5CCOCC5)cc4)cccc3C2=O)C(=O)N1` [Compound B, 3-(4-((4-(morpholinomethyl)benzyl)oxy)-1-oxoisoindolin-2-yl)piperidine-2,6-dione], the Aiolos expression entry in the assay with Aiolos [1] was “showed inhibitory effect on Aiolos expression”; in the assay with Aiolos [2], “showed an inhibitory effect on Aiolos expression”; in the assay with Aiolos [3], “inhibit Aiolos expression”; in the assay on Aiolos [4], “inhibited the expression of both Aiolos and Ikaros”. Further, the “Potency in Aiolos protein inhibition relative to Len” value in the assay with Aiolos [1] is given as “higher potency than Len”. For the same molecule, the Ikaros expression entry with Ikaros [5] was “inhibited the expression of both Aiolos and Ikaros”. Moreover, the Aiolos protein level entry with Aiolos [6] is “down regulated”. The “Dose dependence of Aiolos inhibition by flow cytometry” value (“Dose dependence of Aiolos inhibition” below) with Aiolos [6] is “dose-dependent inhibition of Aiolos”. Moreover, in the assay with IRF4, the IRF4 protein level entry is given as “down regulated”. For the same molecule, the “p21^WAF-1 protein level” value in the assay with p21^WAF-1 is recorded as “upregulated”. Moreover, the CRBN protein levels entry on CRBN is listed as “do not affect CRBN protein levels or in some samples induce slight increased of CRBN levels”.
On to `Nc1cccc2c1C(=O)N(C1CCC(=O)NC1=O)C2=O` (centres unmarked) [pomalidomide, reference compound], for which the Aiolos expression result in the assay with Aiolos [1] was “showed inhibitory effect on Aiolos expression”; in the assay on Aiolos [2], “showed an inhibitory effect on Aiolos expression”; with Aiolos [3], “inhibit Aiolos expression”; in the assay on Aiolos [4] it was “inhibited the expression of both Aiolos and Ikaros”. The “Potency in Aiolos protein inhibition relative to Len” value in the assay with Aiolos [1] was “higher potency than Len”. For the same molecule, the Ikaros expression result with Ikaros [5] is “inhibited the expression of both Aiolos and Ikaros”; at Ikaros [7] (setting [8]) it was “reduced the expression of Aiolos and Ikaros”; at Ikaros [7] (setting [9]), “significantly inhibited Aiolos and Ikaros expression”. The Aiolos protein level entry with Aiolos [6] is “down regulated”. Moreover, in the assay with Aiolos [6], the “Dose dependence of Aiolos inhibition” value is recorded as “dose-dependent inhibition of Aiolos”. In the assay with IRF4, the IRF4 protein level entry is “down regulated”. Further, the “p21^WAF-1 protein level” value in the assay on p21^WAF-1 is reported as “upregulated”. The CRBN protein levels entry on CRBN is recorded as “do not affect CRBN protein levels or in some samples induce slight increased of CRBN levels”. The “Reduction of Ikaros levels compared with other treatment compounds for MM” value at Ikaros [7] was “unique to immunomodulatory compounds provided herein”.
Turning to `Nc1cccc2c1CN(C1CCC(=O)NC1=O)C2=O` (centres unmarked) [lenalidomide], the IRF4 protein level result with IRF4 is on record as “down regulated”. Also, the “p21^WAF-1 protein level” value with p21^WAF-1 is “upregulated”. In addition, the Ikaros expression result at Ikaros [7] (setting [8]) is “reduced the expression of Aiolos and Ikaros”; on Ikaros [7] (setting [9]) it was “significantly inhibited Aiolos and Ikaros expression”. For the same molecule, on Ikaros [7], the “Reduction of Ikaros levels compared with other treatment compounds for MM” value is on record as “unique to immunomodulatory compounds provided herein”.
In the case of `Cc1nc2cccc(N)c2c(=O)n1C1CCC(=O)NC1=O` (centres unmarked) [Compound A, 3-(5-amino-2-methyl-4-oxo-4H-quinazolin-3-yl)-piperidine-2,6-dione], the Aiolos expression result in the assay with Aiolos [1] is “showed inhibitory effect on Aiolos expression”; with Aiolos [2], “showed an inhibitory effect on Aiolos expression”; in the assay on Aiolos [3], “inhibit Aiolos expression”; in the assay with Aiolos [4], “inhibited the expression of both Aiolos and Ikaros”. In addition, the “Potency in Aiolos protein inhibition relative to Len” value in the assay on Aiolos [1] is reported as “higher potency than Len”. In the assay on Ikaros [5], the Ikaros expression entry is “inhibited the expression of both Aiolos and Ikaros”. Also, the Aiolos protein level result with Aiolos [6] is recorded as “down regulated”. Moreover, in the assay on Aiolos [6], the “Dose dependence of Aiolos inhibition” value is “dose-dependent inhibition of Aiolos”. Moreover, in the assay on IRF4, the IRF4 protein level entry was “down regulated”. Moreover, the “p21^WAF-1 protein level” value with p21^WAF-1 is recorded as “upregulated”. In addition, the CRBN protein levels entry on CRBN was “do not affect CRBN protein levels or in some samples induce slight increased of CRBN levels”.
